According to article PMC5118230, “Effects of acetaminophen on mitochondrial complex I activity in the rat liver and kidney: a PET study with ^18F-BCPP-BF” (EJNMMI Research, 2016):

Assays:
[1] = parameters: method as in PMID 24285187, PMID 24470629; details: pH 7.4; cited from earlier work
MC-I [2] = molecular target: MC-I; parameters: method as in PMID 24285187, PMID 24470629; details: affinity to MC-I; cited from earlier work
[3] = system: mitochondrial complex I (MC-I); assay: PET kinetics and distribution of 18F-BCPP-BF in rat abdominal organs; format: in vivo
Protocol: (§1) Four animals per group were used for PET imaging.
(§2) Rats anesthetized by 1.5–2.0% isoflurane in O2 were positioned prone on a fixation plate and placed in the gantry hole of the PET scanner (SHR-7700, Hamamatsu Photonics, Hamamatsu, Japan). After a transmission scan for 15 min using a ^68Ge-^68Ga rotation rod source, ^18F-BCPP-BF at ca. 15 MBq was intravenously injected into each rat via the tail vein, and this was followed by an emission scan with list mode data acquisition (every 1 ms) for 90 min. The body temperature of each animal was monitored to record throughout the study using a Thermo-Hygro Recorder (TR-72Ui, T&D Corporation, Matsumoto, Japan).
(§3) The PET data obtained were reconstructed by Dynamic RAMLA (DRAMA) method with a Gauss filter of 1.0-mm FWHM and attenuation correction using the transmission scan data. Dynamic images every 2 min for the time activity curve (TAC) as well as summation images in the early (from 15 to 30 min after ^18F-BCPP-BF injection) and late (from 70 to 90 min) phases were reconstructed. Since there were no information on the TACs of ^18F-BCPP-BF in the liver and kidney, we conducted PET data acquisition up to 90 min after the injection.
(§4) Standard uptake value (SUV) images were created as follows: SUV=CTWs/Dinj
(§5) where C T is the tissue radioactivity (Bq/mL) obtained from PET images, W s is the body weight (g) of the rat being examined, and D inj is the injected dose (Bq) of ^18F-BCPP-BF. Each summation SUV image was superimposed on the corresponding X-CT images obtained using ClairvivoCT (Shimadzu Corporation, Kyoto, Japan). Volumes of interest (VOIs) were selected on summation images of the kidney (renal cortex and pelvis) and liver in the early (from 15 to 30 min) and late (from 70 to 90 min) phases and TACs were obtained from dynamic image data in each organ as SUV by setting the early phase VOIs.

[4] = system: mitochondrial complex I (MC-I); parameters: method as in PMID 24470629; details: with time, significant at the later phase of 60 min after injection; cited from earlier work
[5] = system: mitochondrial complex I (MC-I); assay: effects of acetaminophen on MC-I activity (18F-BCPP-BF uptake, PET); format: in vivo, rat
Protocol: In order to evaluate the acute effects of acetaminophen, vehicle or acetaminophen at a dose of 100 or 300 mg/kg in 10 mL/kg of vehicle (saline containing 20% Tween-80) was intraperitoneally administered 2 or 24 h before the PET probe injection.
as §2, §3, §4, §5

liver [6] = assay: biochemical parameters for hepatic function in serum after acetaminophen; format: in vivo, rat
Protocol: (§6) In a separate study from PET measurements, physiological and biochemical assessments were conducted on four animals for each time and dosing condition. Body weight measurements, urine collection, and blood sampling were conducted 2, 6, and 24 h after the administration of acetaminophen. A rat was placed in a metabolic cage on a 12/12-h light/dark cycle, and urine samples were collected for 24 h and centrifuged to remove suspended material, and the supernatants were analyzed to measure total protein, creatinine, and N-acetyl-β-D-glucosaminidase (NAG) using a biochemical automatic analyzer (JCA-BM6010, JEOL Ltd., Tokyo, Japan). Blood sample was collected from the tail vein, and the serum fraction separated from the blood was used in assay of alanine aminotransferase (ALT), aspartate aminotransferase (AST), lactate dehydrogenase (LDH), bilirubin (BIL), and BUN using a biochemical automatic analyzer (JCA-BM6010, JEOL Ltd., Tokyo, Japan).

kidney = assay: biochemical parameters for renal function in urine and serum after acetaminophen; format: in vivo, rat
Protocol: as §6

liver [7] = system: liver; parameters: method as in PMID 26102222; details: acetaminophen 300 mg/kg, mice; cited from earlier work
[8] = system: mitochondrial complex I (MC-I); assay: binding specificity of 18F-BCPP-BF to MC-I: pre-administration of rotenone, PET; format: in vivo, rat; details: rotenone 0.1 mg/kg/h i.v. infusion for 1 h before probe
Protocol: as §1, §2, §3, §4, §5

MC-I [9] = system: MC-I; parameters: method as in PMID 24470629; details: rotenone 0.1 mg/kg; cited from earlier work
[10] = control rat, 15 to 30 min post-injection, i.v.
[11] = control rat, 70 to 90 min post-injection, i.v.
[12] = 24 h after acetaminophen 300 mg/kg i.p., p < 0.001
[13] = 24 h after acetaminophen 300 mg/kg i.p., p = 0.034
[14] = 24 h after acetaminophen 300 mg/kg i.p., p = 0.027

CC(C)(C)n1ncc(OCc2ccc(OCCOCCO[11CH3])nc2)c(Cl)c1=O [^11C-BCPP-EM, 2-tert-butyl-4-chloro-5-{6-[2-(2-^11C-methoxy-ethoxy)-ethoxy]-pyridin-3-ylmethoxy}-2H-pyridazin-3-one]
logD7.4 [1]: 2.87

COCCOCCOc1ccc(COc2cnn(C(C)(C)C)c(=O)c2Cl)cn1 [^11C-BCPP-EM, 2-tert-butyl-4-chloro-5-{6-[2-(2-^11C-methoxy-ethoxy)-ethoxy]-pyridin-3-ylmethoxy}-2H-pyridazin-3-one]
Ki (MC-I [2]): 4.7 nM

CC(C)(C)n1ncc(OCc2ccc(OCCCCF)nc2)c(Cl)c1=O [^18F-BCPP-BF, 2-tert-butyl-4-chloro-5-[6-(4-^18F-fluorobutoxy)-pyridin-3-ylmethoxy]-2H-pyridazin-3-one]
Ki (MC-I [2]): 0.7 nM

CC(C)(C)n1ncc(OCc2ccc(OCCCC[18F])nc2)c(Cl)c1=O [^18F-BCPP-BF, 2-tert-butyl-4-chloro-5-[6-(4-^18F-fluorobutoxy)-pyridin-3-ylmethoxy]-2H-pyridazin-3-one]
averaged SUV, liver [3, 10]: 4.40 ± 0.39 | averaged SUV, renal cortex [3, 10]: 8.12 ± 0.69 | averaged SUV, renal pelvis [3, 10]: 4.17 ± 0.51 | averaged SUV, bladder ([3]; control rat, 15 to 30 min post-injection, i.v., data not shown): 0.88 ± 0.42 | averaged SUV, liver [3, 11]: 3.75 ± 0.38 | averaged SUV, renal cortex [3, 11]: 6.29 ± 0.30 | averaged SUV, renal pelvis [3, 11]: 4.37 ± 0.64 | type of kinetics of the time activity curves ([3]; rat renal cortex and liver, PET TACs): reversible-type kinetics | logD7.4 [1]: 4.27 | accumulation of radioactivity in bone (defluorination) [4]: slightly greater accumulation of radioactivity in bone with time

CC(C)(C)n1ncc(OCc2ccc(OCCOCCF)nc2)c(Cl)c1=O [^18F-BCPP-EF, 2-tert-butyl-4-chloro-5-{6-[2-(2-^18F-fluoroethoxy)-ethoxy]-pyridin-3-ylmethoxy}-2H-pyridazin-3-one]
Ki (MC-I [2]): 2.31 nM

CC(C)(C)n1ncc(OCc2ccc(OCCOCC[18F])nc2)c(Cl)c1=O [^18F-BCPP-EF, 2-tert-butyl-4-chloro-5-{6-[2-(2-^18F-fluoroethoxy)-ethoxy]-pyridin-3-ylmethoxy}-2H-pyridazin-3-one]
logD7.4 [1]: 3.03

CC(=O)Nc1ccc(O)cc1 [acetaminophen]
18F-BCPP-BF uptake by the liver vs. control ([5]; acetaminophen 100 mg/kg i.p., 2 h after, SUV 15 to 30 min, p = 0.017): 72.1% | 18F-BCPP-BF uptake in the renal cortex vs. control ([5]; acetaminophen 100 mg/kg i.p., 24 h after, SUV 15 to 30 min, p = 0.038): 83.4% | 18F-BCPP-BF uptake by the liver vs. control ([5]; acetaminophen 100 mg/kg i.p., 24 h after, SUV 15 to 30 min, p = 0.049): 81.4% | 18F-BCPP-BF uptake by the liver vs. control ([5]; acetaminophen 300 mg/kg i.p., 2 h after, SUV 15 to 30 min, p = 0.003): 53.9% | 18F-BCPP-BF uptake in the renal cortex vs. control ([5]; acetaminophen 300 mg/kg i.p., 2 h after, SUV 15 to 30 min, p = 0.025): 72.1% | 18F-BCPP-BF uptake in the renal pelvis vs. control ([5]; acetaminophen 300 mg/kg i.p., 2 h after, SUV 15 to 30 min, p = 0.027): 56.6% | 18F-BCPP-BF uptake by the liver vs. control ([5]; acetaminophen 300 mg/kg i.p., 24 h after, SUV 15 to 30 min, p = 0.002): 80.5% | 18F-BCPP-BF uptake in the renal cortex vs. control ([5]; acetaminophen 300 mg/kg i.p., 24 h after, SUV 15 to 30 min, p = 0.009): 79.5% | reduction of MC-I activity in the liver assessed using 18F-BCPP-BF ([5]; acetaminophen 300 mg/kg in rats): approximately 50% | 18F-BCPP-BF uptake in the renal pelvis ([5]; acetaminophen i.p., 24 h after, SUV 15 to 30 min): no significant reduction | AST vs. the corresponding 100 mg/kg (liver [6]; [12]): 383.0% | AST vs. the corresponding control (liver [6]; [12]): 322.3% | ALT vs. the corresponding control (liver [6]; 24 h after acetaminophen 300 mg/kg i.p., p = 0.001): 207.4% | BIL vs. the corresponding 100 mg/kg (liver [6]; [13]): 233.3% | BIL vs. the corresponding control (liver [6]; [13]): 186.2% | ALT level change (liver [6]; acetaminophen 100 mg/kg i.p.): did not show significant changes | AST level change (liver [6]; acetaminophen 100 mg/kg i.p.): did not show significant changes | BIL level change (liver [6]; acetaminophen 100 mg/kg i.p.): did not show significant changes | LDH change from the control condition (liver [6]; acetaminophen 100 or 300 mg/kg i.p., 2, 6 and 24 h): did not show any significant alterations | urinary protein excretion vs. 100 mg/kg (kidney; 6 h after acetaminophen 300 mg/kg i.p., p = 0.017): 46.9% | urinary protein excretion vs. control (kidney; 6 h after acetaminophen 300 mg/kg i.p., p = 0.028): 56.4% | urinary protein excretion vs. 100 mg/kg (kidney; [14]): 143.0% | urinary protein excretion vs. control (kidney; [14]): 128.9% | BUN change (kidney; serum, acetaminophen treatment, at any time): did not show any significant alterations | creatinine level vs. control (kidney; urine, 6 h after acetaminophen 300 mg/kg i.p., p < 0.001): 24.3% | creatinine level vs. 100 mg/kg (kidney; urine, 6 h after acetaminophen 300 mg/kg i.p., p = 0.002): 23.4% | NAG vs. control (kidney; urine, 24 h after acetaminophen 300 mg/kg i.p., p = 0.011): 161.8% | NAG vs. 100 mg/kg (kidney; urine, 24 h after acetaminophen 300 mg/kg i.p., p = 0.027): 164.8% | NAG change (kidney; urine, acetaminophen 100 mg/kg i.p.): did not show any significant changes | reduction in 18F-2-DFR uptake by the liver (liver [7]): approximately 20%

C=C(C)[C@H]1Cc2c(ccc3c2O[C@@H]2COc4cc(OC)c(OC)cc4[C@@H]2C3=O)O1 [rotenone]
18F-BCPP-BF uptake level in renal cortex vs. control ([8]; averaged SUV 15 to 30 min, p = 0.027): 64.2% | 18F-BCPP-BF uptake level in liver vs. control ([8]; averaged SUV 15 to 30 min, p = 0.038): 76.9% | inhibition degree of 18F-BCPP-BF uptake in renal cortex, of control ([8]; averaged SUV 70 to 90 min, p = 0.006): 52.2% | inhibition of the binding of MC-I PET probes to MC-I in the heart and brain (MC-I [9]): fully inhibited
